Earlier results in US8188116B2, “Agents for therapy efficacy monitoring and deep tissue imaging” (Vanderbilt University, priority 2002, dated 2012).

Test system: PBR
Conditions: in words, background statement

**Q.** For `COc1ccc(OC)c(CN(C(C)=O)c2cc(F)ccc2Oc2ccccc2)c1` [DAA1106], which “binding affinity for PBR” value is on record?
**A.** fentomolar
